Measurements taken from the NIST ThermoML archive (doi:10.1021/je0255980).
Values joined by “and” are separate entries in the source; they are usually repeats but may differ in a detail not shown here. Identical values can stand only once.

Conditions: Liquid

CCCCCCOC(C)(C)CC(C)(C)C [pentane, 2-hexoxy-2,4,4-trimethyl-]
Conditions | vapor or sublimation pressure [kPa]
295.8 K | 0.0053
298.8 K | 0.0069
301.9 K | 0.0086
304.9 K | 0.0111
308 K | 0.0141
311 K | 0.0162
314.1 K | 0.0215
317.1 K | 0.0255
320.1 K | 0.0321
323.1 K | 0.0406
326.2 K | 0.0502

CCCOC(C)(C)CC [1,1-dimethylpropyl propyl ether]
Conditions | vapor or sublimation pressure [kPa]
274.2 K | 0.4002
276.2 K | 0.4448
278.1 K | 0.5329
280.2 K | 0.6121
282.2 K | 0.7161
284.2 K | 0.7938
285.1 K | 0.8034
287.3 K | 0.9974
290.3 K | 1.199
293.3 K | 1.434
296.2 K | 1.799
299.2 K | 2.072
302.2 K | 2.332

COC(C)(C)CC(C)(C)C [methyl 1,1,3,3-tetramethylbutyl ether]
Conditions | vapor or sublimation pressure [kPa]
276.2 K | 0.1656
277.3 K | 0.1859
278.3 K | 0.1958
280.3 K | 0.2383
283.2 K | 0.2818
283.3 K | 0.2759
286.3 K | 0.356
288.1 K | 0.3919
289.3 K | 0.4126
292.3 K | 0.5102
293.3 K | 0.5636
295.2 K | 0.6069
298 K | 0.7478
298.2 K | 0.7352
301.2 K | 0.8887
303.2 K | 1.022
304.2 K | 1.07
308 K | 1.339

CC(C)COC(C)(C)C [isobutyl tert-butyl ether]
Conditions | vapor or sublimation pressure [kPa]
273.3 K | 0.6788
275.4 K | 0.7463
276.4 K | 0.7981
278.5 K | 0.9
278.6 K | 0.938
280.4 K | 0.9803
282.5 K | 1.207
283.5 K | 1.362
284.6 K | 1.398
287.6 K | 1.664
288.4 K | 1.769
290.6 K | 1.996
293.4 K | 2.354
293.6 K | 2.439
295.6 K | 2.686
298.4 K | 3.187
298.7 K | 3.146
301.8 K | 3.723
303.4 K | 4.026
304.8 K | 4.451
308.4 K | 5.224

CCOC(C)(C)CC(C)(C)C [ethyl 1,1,3,3-tetramethylbutyl ether]
Conditions | vapor or sublimation pressure [kPa]
274.3 K | 0.0913
277.2 K | 0.1201
280.1 K | 0.1414
283.2 K | 0.1829
286.1 K | 0.2218
289.2 K | 0.2772
292.2 K | 0.339
295.2 K | 0.4146
298.2 K | 0.5117
301.2 K | 0.6018

CCCCCOC(C)(C)CC(C)(C)C [pentane, 2-pentoxy-2,4,4-trimethyl-]
Conditions | vapor or sublimation pressure [kPa]
277.5 K | 0.0037
279.5 K | 0.0044
281.5 K | 0.0052
283.5 K | 0.0062
285.6 K | 0.0073
288.6 K | 0.0095
291.6 K | 0.0124
294.7 K | 0.0155
297.7 K | 0.0194
300.7 K | 0.0247
303.2 K | 0.03

CCC(C)(C)OC [2-methoxy-2-methylbutane]
Conditions | vapor or sublimation pressure [kPa]
274.2 K | 2.693
276.2 K | 2.998
278.2 K | 3.315
280.2 K | 3.8
282.8 K | 4.422
283.8 K | 4.678
287.8 K | 5.69
292.9 K | 7.603
297.8 K | 9.142
302.8 K | 12.31
307.8 K | 14.55

CCOC(C)(C)CC [1,1-dimethylpropyl ethyl ether]
Conditions | vapor or sublimation pressure [kPa]
274.2 K | 1.413
276.2 K | 1.614
278.2 K | 1.821
280.2 K | 2.055
282.2 K | 2.341
284.2 K | 2.67
287.2 K | 3.214
290.2 K | 3.744
293.2 K | 4.439
296.2 K | 5.272
299.2 K | 6.128
302.2 K | 7.186

CCCCOC(C)(C)CC [butyl 1,1-dimethylpropyl ether]
Conditions | vapor or sublimation pressure
274.2 K | 0.1111 kPa
276.2 K | 0.1278 kPa
278.2 K | 0.1602 kPa and 0.1508 kPa
281.3 K | 0.1842 kPa
283.2 K | 0.2344 kPa and 0.2179 kPa
285.2 K | 0.2509 kPa
286.2 K | 0.2632 kPa
288.2 K | 0.3232 kPa
290.2 K | 0.3551 kPa
293.2 K | 0.4784 kPa and 0.4372 kPa
296.2 K | 0.5522 kPa
298.2 K | 0.6658 kPa and 0.6132 kPa
301.2 K | 0.7443 kPa
303.2 K | 0.901 kPa
304.2 K | 0.9012 kPa
308.2 K | 1.199 kPa

CCCCOC(C)(C)CC(C)(C)C [butyl 1,1,3,3-tetramethylbutyl ether]
Conditions | vapor or sublimation pressure [kPa]
278.3 K | 0.0128
281.3 K | 0.0165
284.3 K | 0.0206
287.3 K | 0.0269
290.3 K | 0.0324
293.3 K | 0.0413
296.3 K | 0.053
299.2 K | 0.0654
302.2 K | 0.0797
305.2 K | 0.1003
308.2 K | 0.1155
311.2 K | 0.1474
314.2 K | 0.1741

CCCOC(C)(C)CC(C)(C)C [pentane, 2-propoxy-2,4,4-trimethyl-]
Conditions | vapor or sublimation pressure [kPa]
274.3 K | 0.0336
277.3 K | 0.0443
278.2 K | 0.0491
280.2 K | 0.058
283.4 K | 0.07
286.2 K | 0.0913
289.3 K | 0.1179
292.3 K | 0.1404
294.4 K | 0.1616
296.3 K | 0.1858
297.4 K | 0.2008
297.8 K | 0.2103
298.3 K | 0.2196
299.3 K | 0.2293
300.3 K | 0.2411
301.2 K | 0.2557
302.2 K | 0.2825
303.2 K | 0.2956
304.3 K | 0.3231
305.2 K | 0.3294
306.2 K | 0.3595
307.2 K | 0.382
308.2 K | 0.3898
